Test results: patent US12564595B2, “Prophylactic and therapeutic pharmaceutical agent for HIV infectious diseases characterized by comprising combination of integrase inhibitor and anti-HIV agent” (Shionogi & Co., Ltd., priority 2019, dated 2026)
pEC50: −log10 of the molar value.

Columns and labels:
HIV [1] = test: microbe, parasite or virus in culture; assay type: cell-based; settings: Human immunodeficiency virus 1, MT4, 96 h, read-out: EC50 (50% HIV inhibition concentration), MT-4 cells, HIV, cultured four days, MTT; compounds of formula (I) of (A)
Method in brief: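 MT-4 cells infected with HIV in the presence of serially diluted test samples and cultured four days at CO2 incubator conditions. Cell viability measured by MTT reduction (1 h), solubilised formazan read at 560/690 nm.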

[2] = system: HIV mutant strain 1 (E138K/G140S/Q148H/N155H); test: Test Example 2: resistance evaluation test (HeLa-CD4 reporter), mutant strain 1; assay type: cell-based; settings: FC=EC50 of mutant strain/EC50 of wild strain; HeLa-CD4 cells
Method in brief: (§1)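 HeLa-CD4 reporter cells were infected with wild-type or mutant HIV in the presence of serially diluted compound and cultured 3 days. Cell lysates were read by chemiluminescent reporter assay after about 1 h at room temperature. Fold change was calculated as mutant EC50 divided by wild-type EC50.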

[3] = system: HIV mutant strain 2 (E92Q/E138T/G140S/Q148H); test: Test Example 2: resistance evaluation test (HeLa-CD4 reporter), mutant strain 2; assay type: cell-based; settings: FC=EC50 of mutant strain/EC50 of wild strain; HeLa-CD4 cells
Method in brief: as §1

HIV [4] = test: Test Example 3: test for confirmation of combined use effect; assay type: cell-based; parameters: key to D value (dosewise additivity value): <-0.1 synergy, -0.1 to 0.1 additive, >0.1 antagonism
Text: The two compounds in respect of which the effect of combined use was desired to be examined were mixed in various ratios, and the anti-HIV activity (50% HIV inhibiting concentration) for each combination was found by the method of test example 1. […] A brief description of the method of calculating the D value is given below.
The D value that is found by evaluating the anti-HIV activity of respective combinations of M concentrations of compound X1 and N concentrations of compound X2 is calculated by the following mathematical expression 1.
The effect of combined use was evaluated in terms of the D value in accordance with the following criteria • −0.5 to −0.2: strong synergetic effect • −0.2 to −0.1: weak synergetic effect • […]: additive synergetic effect • 0.1 to 0.2: weak antagonism • 0.2 to 0.5: strong antagonism

[5] = Test Example 8: metabolic stability test; assay type: in vitro ADME, human; settings: pooled human liver microsomes, 30 min at 37° C., NADPH, compound concentration 0.5 μmol/L
Method in brief: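 Pooled human liver microsomes (0.5 mg protein/mL, Tris-HCl pH 7.4) incubated with compound and 1 mmol/L NADPH for 0 or 30 min at 37° C. After methanol/acetonitrile quench, remaining parent was quantified by LC/MS/MS or SPE/MS and expressed as % of the 0 min amount.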

[6] = target: T1, voltage-gated sodium channel (Nav 1.5 channel) (Homo sapiens, UniProt Q14524); test: Test Example 14: Nav test (patch clamp, HEK cells); assay type: cell-based; settings: HEK cells expressing Nav 1.5 channel, whole cell patch clamp
T1 construct: expressed in transfected cells; host or cells: HEK cells
Method: Using a fully automatic patch clamp system (QPatch: Sophion Bioscience A/S), by the whole cell patch clamp method, the cells were maintained at a membrane potential of −100 mV and the induced INa when a −10 mV depolarization stimulus was applied for 20 msec was recorded. […] From the INa obtained, using analysis software (QPatch: Sophion Bioscience A/S), the absolute value of the maximum peak current was measured, with reference to the current value at the maintained membrane potential.

HIV [7] = test: Test Example 16: anti-HIV activity in the presence of human serum protein (MT-4 cells); assay type: cell-based; settings: 100% extrapolation value, PS=4×(EC50 with 25% human serum protein/EC50 with no human serum protein)
Method: A stage dilution series of the test samples was created on a 96-well microplate (50 μL/well).
Aliquots of human serum protein solution (human serum protein concentration 50%) were dispensed in the amount of 100 μL/well to a 96-well microplate containing the test sample. This was then left to stand for 1 h at room temperature. Culture medium in the amount of 100 μL/well in each case was dispensed to a serum-free plate for control purposes. Aliquots of MT-4 cells in the amount of 3.0×10^5/well and HIV virus liquid in the amount of 3 μL/well were mixed for the necessary number of wells and reacted for 1 h at 37° C. After the reaction, the cell suspension was centrifuged and the supernatant discarded; aliquots of infected cells were distributed to culture medium in the amount of 50 μL/well and were dispensed in the amount of 50 μL/well in each case into the wells of a 96-well microplate containing test samples and human serum protein (human serum protein concentration: 25%). Mixing was performed using a plate mixer and culturing was performed for four days with a CO2 incubator. […] MTT(3-(4, 5-dimethylthiazol-2-yl)-2, 5-diphenyltetrazolium bromide) liquid in the amount of 30 μL was dispensed to each of the wells. The reaction was performed for 1 h in a CO2 incubator. 150 μL supernatant was removed to avoid aspirating cells from the wells. 150 μL of cell solution was added and thorough mixing was performed, using a plate mixer, until all the cells were dissolved. The optical absorbance on the mixed plate was measured at two wavelengths, namely, 560 nm/690 nm, using a microplate reader.
Next, the potency shift (PS) was calculated, using the following formula. The PS is the value of the human serum protein concentration, extrapolated to 100%.

[8] = system: HIV mutant strain 3 (E92Q/E138K/G140S/Q148H); test: Test Example 2: resistance evaluation test (HeLa-CD4 reporter), mutant strain 3; assay type: cell-based; settings: FC=EC50 of mutant strain/EC50 of wild strain; HeLa-CD4 cells
Method: (§2) A serial dilution series of test samples in 96-well microplates was prepared (50 […]).
(§3) 2.5×10^4/mL of HeLa-CD4 cell suspension was dispensed into each of the microplates containing test sample, in the amount of 100 μL/well, and HIV virus liquid (wild strain and mutant strain) was then dispensed in an amount of 50 μL/well. Mixing was performed using a plate mixer and culturing was performed for three days in a CO2 incubator. After removing the cultured supernatant of each well by suction, 100 μL of the cell solution buffer in the reporter measurement kit was dispensed thereto, and freezing was conducted in a refrigerator (−80° C.). The plates frozen in the refrigerator were defrosted at room temperature, then mixed using a plate mixer and centrifuged for 5 min at 1,200 rpm. The supernatant of each well was divided to 96-well microplates (BLACK) in the amount of 20 μL in each case. The chemiluminescence reagent in the reporter assay kit was dispensed in the amount of 100 μL in each case, and, after reacting for about 1 h at room temperature, the amount of luminescence was measured using a MicroBeta TRILUX.
(§4) The degree of resistance (fold change (FC)) of each mutant strain was also calculated using the following formula. FC=EC50 of mutant strain/EC50 of wild strain (Results)

[9] = system: HIV mutant strain 4 (T97A/E138T/G140S/Q148H); test: Test Example 2: resistance evaluation test (HeLa-CD4 reporter), mutant strain 4; assay type: cell-based; settings: FC=EC50 of mutant strain/EC50 of wild strain; HeLa-CD4 cells
Method: as §2, §3, §4

[10] = combination with compound (B) Compound C (CAI)
[11] = combination with compound (B) Darunavin (PI)
[12] = combination with compound (B) Darunavir (PI)
[13] = combination with compound (B) GS-6207 (CAI)
[14] = combination with compound (B) GSK2838232 (maturation inhibitor)
[15] = combination with compound (B) I′-189 (INLAI)
[16] = combination with compound (B) Lilpiperine (polymerase inhibitor)
[17] = combination with compound (B) Ramipzin (3TC) (polymerase inhibitor)
[18] = combination with compound (B) Rilpivirine (polymerase inhibitor)
[19] = combination with compound (B) VM-1500 (polymerase inhibitor)

T1 sequence (Q14524 whole entry): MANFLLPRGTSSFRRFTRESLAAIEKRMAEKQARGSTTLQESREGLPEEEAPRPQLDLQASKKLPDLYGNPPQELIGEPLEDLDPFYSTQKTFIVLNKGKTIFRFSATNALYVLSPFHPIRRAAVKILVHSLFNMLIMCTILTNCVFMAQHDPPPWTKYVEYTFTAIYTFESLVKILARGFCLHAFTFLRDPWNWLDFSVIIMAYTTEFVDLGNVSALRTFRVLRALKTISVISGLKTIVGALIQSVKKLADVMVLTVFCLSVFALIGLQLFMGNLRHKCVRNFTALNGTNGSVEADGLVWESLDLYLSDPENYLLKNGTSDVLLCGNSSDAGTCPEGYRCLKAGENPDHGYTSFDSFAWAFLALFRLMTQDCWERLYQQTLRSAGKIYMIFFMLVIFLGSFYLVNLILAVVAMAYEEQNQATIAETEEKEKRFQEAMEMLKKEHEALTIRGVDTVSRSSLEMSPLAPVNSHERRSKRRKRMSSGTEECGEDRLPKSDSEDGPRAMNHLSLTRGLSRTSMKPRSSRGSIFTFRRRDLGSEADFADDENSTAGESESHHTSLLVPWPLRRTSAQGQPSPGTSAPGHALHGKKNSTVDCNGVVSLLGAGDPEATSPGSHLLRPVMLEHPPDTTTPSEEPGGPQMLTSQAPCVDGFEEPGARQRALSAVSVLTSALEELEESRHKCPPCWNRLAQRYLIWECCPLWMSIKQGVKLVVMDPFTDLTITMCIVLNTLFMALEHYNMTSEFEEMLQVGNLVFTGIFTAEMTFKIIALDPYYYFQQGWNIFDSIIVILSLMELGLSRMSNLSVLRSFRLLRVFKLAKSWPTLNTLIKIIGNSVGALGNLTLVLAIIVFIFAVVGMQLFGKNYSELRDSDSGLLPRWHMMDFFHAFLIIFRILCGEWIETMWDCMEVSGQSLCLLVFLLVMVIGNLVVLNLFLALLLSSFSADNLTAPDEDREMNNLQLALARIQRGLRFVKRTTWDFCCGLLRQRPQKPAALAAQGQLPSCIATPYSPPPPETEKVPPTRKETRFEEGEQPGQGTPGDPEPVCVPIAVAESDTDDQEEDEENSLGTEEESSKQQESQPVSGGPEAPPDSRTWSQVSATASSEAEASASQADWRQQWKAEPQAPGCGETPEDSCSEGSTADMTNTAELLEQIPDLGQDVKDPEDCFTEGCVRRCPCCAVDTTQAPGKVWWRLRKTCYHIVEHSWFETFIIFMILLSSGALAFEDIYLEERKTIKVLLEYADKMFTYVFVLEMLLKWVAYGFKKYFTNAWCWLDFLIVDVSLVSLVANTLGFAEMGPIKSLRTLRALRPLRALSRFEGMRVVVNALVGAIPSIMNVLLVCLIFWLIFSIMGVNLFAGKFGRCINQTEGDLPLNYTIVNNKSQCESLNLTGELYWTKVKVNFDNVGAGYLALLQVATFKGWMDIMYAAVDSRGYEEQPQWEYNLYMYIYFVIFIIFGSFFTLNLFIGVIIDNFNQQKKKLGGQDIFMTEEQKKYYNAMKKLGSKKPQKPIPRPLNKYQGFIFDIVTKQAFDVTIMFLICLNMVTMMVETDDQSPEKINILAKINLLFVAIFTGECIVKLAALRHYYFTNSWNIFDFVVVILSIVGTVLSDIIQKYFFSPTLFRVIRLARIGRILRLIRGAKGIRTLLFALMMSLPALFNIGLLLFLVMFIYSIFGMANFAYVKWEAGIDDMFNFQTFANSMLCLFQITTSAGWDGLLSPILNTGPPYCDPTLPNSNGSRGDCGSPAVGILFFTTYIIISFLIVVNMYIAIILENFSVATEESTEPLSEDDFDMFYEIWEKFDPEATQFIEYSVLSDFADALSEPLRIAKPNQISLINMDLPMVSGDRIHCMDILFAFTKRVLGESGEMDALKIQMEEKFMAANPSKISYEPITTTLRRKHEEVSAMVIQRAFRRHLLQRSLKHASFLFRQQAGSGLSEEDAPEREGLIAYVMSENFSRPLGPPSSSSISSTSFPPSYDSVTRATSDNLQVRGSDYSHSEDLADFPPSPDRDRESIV

| SMILES | FC in respect of mutant strain 1 (E138K/G140S/Q148H/N155H) [2] | FC in respect of mutant strain 2 (E92Q/E138T/G140S/Q148H) [3] | D value (dosewise additivity value) (HIV [4]; [10]) | effect of combined use (HIV [4]; [10]) | D value (dosewise additivity value) (HIV [4]; [11]) | effect of combined use (HIV [4]; [12]) | D value (dosewise additivity value) (HIV [4]; [13]) | effect of combined use (HIV [4]; [13]) | D value (dosewise additivity value) (HIV [4]; [14]) | effect of combined use (HIV [4]; [14]) | D value (dosewise additivity value) (HIV [4]; [15]) | effect of combined use (HIV [4]; [15]) | effect of combined use (HIV [4]; [16]) | D value (dosewise additivity value) (HIV [4]; [17]) | effect of combined use (HIV [4]; [17]) | D value (dosewise additivity value) (HIV [4]; [18]) | D value (dosewise additivity value) (HIV [4]; [19]) | effect of combined use (HIV [4]; [19]) | Remaining percentage [5] [%] | ratio of maximum peak current (INa) on application of compound to that on application of medium [6] [%] | other results |
| --- | --- | --- | --- | --- | --- | --- | --- | --- | --- | --- | --- | --- | --- | --- | --- | --- | --- | --- | --- | --- | --- |
| CCN1C(=O)c2c(O)c(=O)c(-c3nnc(Cc4c(F)cc(F)cc4F)s3)cn2N2CCCC[C@@H]12 [Compound I-007] | 3.8 | 6.9 | 0.059 | Additive (−0.1 to −0.1: additive synergetic effect) | −0.096 | Additive (−0.1 to −0.1: additive synergetic effect) | −0.040 | Additive (−0.1 to −0.1: additive synergetic effect) | 0.017 | Additive (−0.1 to −0.1: additive synergetic effect) | 0.053 | Additive (−0.1 to −0.1: additive synergetic effect) | Additive (−0.1 to −0.1: additive synergetic effect) | −0.231 | Strong synergy (−0.5 to −0.2: strong synergetic effect) | −0.054 | −0.097 | Additive (−0.1 to −0.1: additive synergetic effect) | 97.7 | 103 | pEC50 (HIV [1]): 8.80; potency shift (PS) in the presence of human serum protein (HIV [7]): 116 |
| CN1C(=O)c2c(O)c(=O)c(C(=O)NCc3ccc(F)cc3F)cn2N2CCCC[C@@H]12 [Compound I-032] | 51 | 18 | – | – | – | – | – | – | – | – | – | – | – | – | – | – | – | – | 103 | 92.1 | FC in respect of mutant strain 3 (E92Q/E138K/G140S/Q148H) [8]: Compound I-032: 7.7; FC in respect of mutant strain 4 (T97A/E138T/G140S/Q148H) [9]: compound I-032: 10 |
| COC[C@@H]1CC[C@H]2N(C)C(=O)c3c(O)c(=O)c(C(=O)NCc4cccc(Cl)c4F)cn3N12 [II-026] | 10 | 6.9 | 0.043 | Additive (−0.1 to −0.1: additive synergetic effect) | −0.137 | Weak synergy (−0.2 to −0.1: weak synergetic effect) | −0.043 | Additive (−0.1 to −0.1: additive synergetic effect) | −0.061 | Additive (−0.1 to −0.1: additive synergetic effect) | 0.056 | Additive (−0.1 to −0.1: additive synergetic effect) | Additive (−0.1 to −0.1: additive synergetic effect) | −0.232 | Strong synergy (−0.5 to −0.2: strong synergetic effect) | −0.077 | −0.155 | Weak synergy (−0.2 to −0.1: weak synergetic effect) | 86 | 79 | potency shift (PS) in the presence of human serum protein (HIV [7]): 364 |
| CCN1C(=O)c2c(O)c(=O)c(-c3nnc(Cc4ccc(F)cc4F)s3)cn2N2C[C@@H](C)C[C@@H]12 [II-109] | 4.1 | 2.5 | 0.071 | Additive (−0.1 to −0.1: additive synergetic effect) | −0.143 | Weak synergy (−0.2 to −0.1: weak synergetic effect) | −0.059 | Additive (−0.1 to −0.1: additive synergetic effect) | −0.054 | Additive (−0.1 to −0.1: additive synergetic effect) | 0.056 | Additive (−0.1 to −0.1: additive synergetic effect) | Additive (−0.1 to −0.1: additive synergetic effect) | −0.145 | Weak synergy (−0.2 to −0.1: weak synergetic effect) | −0.096 | −0.094 | Additive (−0.1 to −0.1: additive synergetic effect) | 98.3 | 93.3 | pEC50 (HIV [1]): 8.92; potency shift (PS) in the presence of human serum protein (HIV [7]): 56 |
